Each block holds one molecule with its values, some of them ahead of it.
Columns and labels:
Heat and pH stability = format: physicochemical; details: RM obtained in accordance with the invention
[1] = Sweetness relative to sucrose (general statements, Table 1)
From the text: The physical and sensory properties are well studied generally only for Stevioside (STV) and Rebaudioside A. The sweetness potency of Stevioside is around 210 times higher than sucrose, Rebaudioside A is between 200 and 400 times, and Rebaudioside C is between 40 and 50 times and Dulcoside A around 30 times. Traditionally, Rebaudioside A is considered to have the most favorable sensory attributes of the four major steviol glycosides (see Table 1): […]

[2] = Solubility in water and solvents; format: physicochemical
[3] = glycosides of wild type stevia; cited from earlier work
[4] = Example 8 sample test results of sweetener solutions (Table 2)
From the text: Reb M 95, Reb C 85, Reb D 95, Reb A 97, Sucrose, New Blends RA97 and RM95, New Blends RA97, RM95 and RC85, New Blends RM95, RA97 and Sucrose, New Blends RM95, RA97 and Erythritol, Purified Water. [table]

heat and pH stability (Heat and pH stability): heat and pH-stable
solubility in acetone, benzene, chloroform, and ether [2]: insoluble
solubility in diluted solutions of methanol, ethanol, n-propanol, and isopropanol [2]: soluble
solubility of RM in water ([2]; increases with an increase in temperature): around 0.3%
Molecule: C=C1C[C@@]23CC[C@H]4[C@@](C)(CCC[C@@]4(C)C(=O)O[C@@H]4O[C@H](CO)[C@@H](O)[C@H](O[C@@H]5O[C@H](CO)[C@@H](O)[C@H](O)[C@H]5O)[C@H]4O[C@@H]4O[C@H](CO)[C@@H](O)[C@H](O)[C@H]4O)[C@@H]2CC[C@]1(O[C@@H]1O[C@H](CO)[C@@H](O)[C@H](O[C@@H]2O[C@H](CO)[C@@H](O)[C@H](O)[C@H]2O)[C@H]1O[C@@H]1O[C@H](CO)[C@@H](O)[C@H](O)[C@H]1O)C3 [RM, Rebaudioside M]
times sweeter than sugar ([1]; compared to a 10% sucrose solution): about 200 times
times sweetness of sucrose ([1]; purified Reb M of the invention): more than 300 times

Molecule: C=C1C[C@@]23CC[C@H]4[C@@](C)(CCC[C@@]4(C)C(=O)O[C@@H]4O[C@H](CO)[C@@H](O)[C@H](O)[C@H]4O)[C@@H]2CC[C@]1(O[C@@H]1O[C@H](CO)[C@@H](O)[C@H](O[C@@H]2O[C@H](CO)[C@@H](O)[C@H](O)[C@H]2O)[C@H]1O[C@@H]1O[C@H](CO)[C@@H](O)[C@H](O)[C@H]1O)C3 [Rebaudioside A]
sweetness, × of sugar [3]: 350-450 × of sugar

Molecule: C=C1C[C@@]23CC[C@H]4[C@@](C)(CCC[C@@]4(C)C(=O)O[C@@H]4O[C@H](CO)[C@@H](O)[C@H](O)[C@H]4O)[C@@H]2CC[C@]1(O[C@@H]1O[C@H](CO)[C@@H](O)[C@H](O)[C@H]1O[C@@H]1O[C@H](CO)[C@@H](O)[C@H](O)[C@H]1O)C3 [Stevioside]
sweetness, × of sugar [3]: 250-300 × of sugar

Molecule: OC[C@H]1O[C@@](CO)(O[C@H]2O[C@H](CO)[C@@H](O)[C@H](O)[C@H]2O)[C@@H](O)[C@@H]1O [Sucrose]
Content/100 ml ([4]; amount per 100 ml in the solution that has sweetness 9° (9 g sucrose)): 9 g
Sweetness of Solution ([4]; solution at the Content/100 ml of Table 2): 9°

Molecule: Rebaudioside C
sweetness, × of sugar [3]: 40-50 × of sugar

Reference: patent US20170226145A1, “METHODS OF EXTRACTION AND PURIFICATION FROM STEVIA REBAUDIANA OF COMPOSITIONS WITH ENHANCED REBAUDIOSIDE-M CONTENT, USES OF SAID COMPOSITION AND NATURAL SWEETENER COMPOSITIONS WITH SAID COMPOSITION” (GLG LIFE TECH CORPORATION, priority 2014, published 2017)
